Results taken from the supplement of paper PMC10307832.

Experiments:
Assay in all cases: relative viability (nuclei count vs DMSO), 5 days (fraction); higher = more cells survive
[1] = test system: EPLC-272H
Procedure, shortened: (§1)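 Medians of duplicate plates are given as relative viability. That measure is the nuclei count in treated wells divided by the count in vehicle wells. Counts were taken on 4× images of lung cancer cell lines in 1536-well plates, 5 days after pin-tool dosing the day after seeding with one drug alone or a fixed anchor-drug dose plus five library-drug doses (not always all listed) in √10 steps.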

[2] = test system: H3255
Procedure, shortened: as §1

[3] = test system: HARA
Procedure, shortened: as §1

[4] = test system: LC-2-ad
Procedure, shortened: as §1

[5] = test system: LOU-NH91
Procedure, shortened: as §1

[6] = test system: NCI-H1651
Procedure, shortened: as §1

[7] = test system: NCI-H1975
Procedure, shortened: as §1

[8] = test system: NCI-H2085
Procedure, shortened: as §1

[9] = test system: NCI-H2087
Procedure, shortened: as §1

[10] = test system: NCI-H2170
Procedure, shortened: as §1

[11] = test system: NCI-H23
Procedure, shortened: as §1

[12] = test system: NCI-H441
Procedure, shortened: as §1

[13] = test system: NCI-H650
Procedure, shortened: as §1

[14] = test system: NCI-H727
Procedure, shortened: as §1

[15] = test system: NCI-H838
Procedure, shortened: as §1

[16] = test system: PC-3 [JPC-3]
Procedure, shortened: as §1

[17] = test system: SW 900
Procedure, shortened: as §1

## Cc1csc(=NC2CCCCC2)n1/N=C/c1ccc(O)c(O)c1O [MIM1] + NC(=O)Nc1cc(-c2cccc(F)c2)sc1C(=O)N[C@H]1CCCNC1 [AZD7762] (partner 0.2 µM)
[1]; first compound 0.2 µM
  relative viability: 0.224
[1]; first compound 0.6325 µM
  relative viability: 0.305
[1]; first compound 2 µM
  relative viability: 0.208
[1]; first compound 6.325 µM
  relative viability: 0.245
[1]; first compound 20 µM
  relative viability: 0.106
[2]; first compound 0.2 µM
  relative viability: 0.863
[2]; first compound 0.6325 µM
  relative viability: 0.85
[2]; first compound 2 µM
  relative viability: 0.783
[2]; first compound 6.325 µM
  relative viability: 0.571
[2]; first compound 20 µM
  relative viability: 0.371
[3]; first compound 0.2 µM
  relative viability: 0.345
[3]; first compound 0.6325 µM
  relative viability: 0.412
[3]; first compound 2 µM
  relative viability: 0.189
[3]; first compound 6.325 µM
  relative viability: 0.219
[3]; first compound 20 µM
  relative viability: 0.148
[4]; first compound 0.2 µM
  relative viability: 0.804
[4]; first compound 0.6325 µM
  relative viability: 0.706
[4]; first compound 2 µM
  relative viability: 0.9
[4]; first compound 6.325 µM
  relative viability: 0.389
[4]; first compound 20 µM
  relative viability: 0.234
[5]; first compound 0.2 µM
  relative viability: 0.731
[5]; first compound 0.6325 µM
  relative viability: 0.779
[5]; first compound 2 µM
  relative viability: 0.677
[5]; first compound 6.325 µM
  relative viability: 0.637
[5]; first compound 20 µM
  relative viability: 0.279
[6]; first compound 0.2 µM
  relative viability: 0.464
[6]; first compound 0.6325 µM
  relative viability: 0.434
[6]; first compound 2 µM
  relative viability: 0.425
[6]; first compound 6.325 µM
  relative viability: 0.429
[6]; first compound 20 µM
  relative viability: 0.503
[7]; first compound 0.2 µM
  relative viability: 0.765
[7]; first compound 0.6325 µM
  relative viability: 0.628
[7]; first compound 2 µM
  relative viability: 0.697
[7]; first compound 6.325 µM
  relative viability: 0.549
[7]; first compound 20 µM
  relative viability: 0.572
[8]; first compound 0.2 µM
  relative viability: 1
[8]; first compound 0.6325 µM
  relative viability: 0.963
[8]; first compound 2 µM
  relative viability: 1.07
[8]; first compound 6.325 µM
  relative viability: 0.766
[8]; first compound 20 µM
  relative viability: 0.775
[9]; first compound 0.2 µM
  relative viability: 1.31
[9]; first compound 0.6325 µM
  relative viability: 1.29
[9]; first compound 2 µM
  relative viability: 1.45
[9]; first compound 6.325 µM
  relative viability: 0.87
[9]; first compound 20 µM
  relative viability: 1.05
[10]; first compound 0.2 µM
  relative viability: 0.857
[10]; first compound 0.6325 µM
  relative viability: 0.826
[10]; first compound 2 µM
  relative viability: 0.759
[10]; first compound 6.325 µM
  relative viability: 0.368
[10]; first compound 20 µM
  relative viability: 0.158
[11]; first compound 0.2 µM
  relative viability: 0.277
[11]; first compound 0.6325 µM
  relative viability: 0.213
[11]; first compound 2 µM
  relative viability: 0.192
[11]; first compound 6.325 µM
  relative viability: 0.263
[11]; first compound 20 µM
  relative viability: 0.139
[12]; first compound 0.2 µM
  relative viability: 1.16
[12]; first compound 0.6325 µM
  relative viability: 1.09
[12]; first compound 2 µM
  relative viability: 1.17
[12]; first compound 6.325 µM
  relative viability: 0.674
[12]; first compound 20 µM
  relative viability: 0.386
[13]; first compound 0.2 µM
  relative viability: 1.05
[13]; first compound 0.6325 µM
  relative viability: 1.03
[13]; first compound 2 µM
  relative viability: 0.866
[13]; first compound 6.325 µM
  relative viability: 0.975
[13]; first compound 20 µM
  relative viability: 0.271
[14]; first compound 0.2 µM
  relative viability: 0.663
[14]; first compound 0.6325 µM
  relative viability: 0.573
[14]; first compound 2 µM
  relative viability: 0.435
[14]; first compound 6.325 µM
  relative viability: 0.528
[14]; first compound 20 µM
  relative viability: 0.348
[15]; first compound 0.2 µM
  relative viability: 0.868
[15]; first compound 0.6325 µM
  relative viability: 0.947
[15]; first compound 2 µM
  relative viability: 0.751
[15]; first compound 6.325 µM
  relative viability: 0.84
[15]; first compound 20 µM
  relative viability: 0.691
[16]; first compound 0.2 µM
  relative viability: 0.899
[16]; first compound 0.6325 µM
  relative viability: 0.801
[16]; first compound 2 µM
  relative viability: 0.719
[16]; first compound 6.325 µM
  relative viability: 0.724
[16]; first compound 20 µM
  relative viability: 0.751
[17]; first compound 0.2 µM
  relative viability: 0.669
[17]; first compound 0.6325 µM
  relative viability: 0.615
[17]; first compound 2 µM
  relative viability: 0.592
[17]; first compound 6.325 µM
  relative viability: 0.296
[17]; first compound 20 µM
  relative viability: 0.19

## CN1CCN(CCOc2cc(OC3CCOCC3)c3c(Nc4c(Cl)ccc5c4OCO5)ncnc3c2)CC1 [Saracatinib] + NC(=O)Nc1cc(-c2cccc(F)c2)sc1C(=O)N[C@H]1CCCNC1 [AZD7762] (partner 0.2 µM)
[1]; first compound 0.02 µM
  relative viability: 0.203
[1]; first compound 0.2 µM
  relative viability: 0.229
[1]; first compound 0.6325 µM
  relative viability: 0.18
[1]; first compound 2 µM
  relative viability: 0.245
[2]; first compound 0.02 µM
  relative viability: 0.959
[2]; first compound 0.2 µM
  relative viability: 0.917
[2]; first compound 0.6325 µM
  relative viability: 0.966
[2]; first compound 2 µM
  relative viability: 0.346
[3]; first compound 0.02 µM
  relative viability: 0.413
[3]; first compound 0.2 µM
  relative viability: 0.345
[3]; first compound 0.6325 µM
  relative viability: 0.247
[3]; first compound 2 µM
  relative viability: 0.355
[4]; first compound 0.02 µM
  relative viability: 0.841
[4]; first compound 0.2 µM
  relative viability: 0.778
[4]; first compound 0.6325 µM
  relative viability: 0.835
[4]; first compound 2 µM
  relative viability: 0.726
[5]; first compound 0.02 µM
  relative viability: 0.785
[5]; first compound 0.2 µM
  relative viability: 0.722
[5]; first compound 0.6325 µM
  relative viability: 0.745
[5]; first compound 2 µM
  relative viability: 0.598
[6]; first compound 0.02 µM
  relative viability: 0.549
[6]; first compound 0.2 µM
  relative viability: 0.359
[6]; first compound 0.6325 µM
  relative viability: 0.514
[6]; first compound 2 µM
  relative viability: 0.436
[7]; first compound 0.02 µM
  relative viability: 0.812
[7]; first compound 0.2 µM
  relative viability: 0.789
[7]; first compound 0.6325 µM
  relative viability: 0.659
[7]; first compound 2 µM
  relative viability: 0.468
[8]; first compound 0.02 µM
  relative viability: 1.06
[8]; first compound 0.2 µM
  relative viability: 0.864
[8]; first compound 0.6325 µM
  relative viability: 0.903
[8]; first compound 2 µM
  relative viability: 0.871
[9]; first compound 0.02 µM
  relative viability: 1.33
[9]; first compound 0.2 µM
  relative viability: 1.13
[9]; first compound 0.6325 µM
  relative viability: 1.76
[9]; first compound 2 µM
  relative viability: 1.31
[10]; first compound 0.02 µM
  relative viability: 0.867
[10]; first compound 0.2 µM
  relative viability: 0.803
[10]; first compound 0.6325 µM
  relative viability: 0.872
[10]; first compound 2 µM
  relative viability: 0.506
[11]; first compound 0.02 µM
  relative viability: 0.243
[11]; first compound 0.6325 µM
  relative viability: 0.287
[11]; first compound 2 µM
  relative viability: 0.27
[12]; first compound 0.02 µM
  relative viability: 1.06
[12]; first compound 0.2 µM
  relative viability: 1.16
[12]; first compound 0.6325 µM
  relative viability: 1.2
[12]; first compound 2 µM
  relative viability: 1.03
[13]; first compound 0.02 µM
  relative viability: 0.984
[13]; first compound 0.2 µM
  relative viability: 1.04
[13]; first compound 0.6325 µM
  relative viability: 0.98
[13]; first compound 2 µM
  relative viability: 0.997
[14]; first compound 0.02 µM
  relative viability: 0.683
[14]; first compound 0.2 µM
  relative viability: 0.522
[14]; first compound 0.6325 µM
  relative viability: 0.616
[14]; first compound 2 µM
  relative viability: 0.401
[15]; first compound 0.02 µM
  relative viability: 0.957
[15]; first compound 0.2 µM
  relative viability: 0.886
[15]; first compound 0.6325 µM
  relative viability: 0.989
[15]; first compound 2 µM
  relative viability: 0.852
[16]; first compound 0.02 µM
  relative viability: 0.859
[16]; first compound 0.2 µM
  relative viability: 0.638
[16]; first compound 0.6325 µM
  relative viability: 0.573
[16]; first compound 2 µM
  relative viability: 0.448
[17]; first compound 0.02 µM
  relative viability: 0.696
[17]; first compound 0.2 µM
  relative viability: 0.545
[17]; first compound 0.6325 µM
  relative viability: 0.533
[17]; first compound 2 µM
  relative viability: 0.492
